Patent US7579338B2, “Methods and compositions for treating atheroma, tumors and other neoplastic tissues” (Pharmacyclics, Inc., priority 1999, dated 2009)

Assays:
[1] = tested on: MES-SA human uterine cells; test: Proliferation of MES-SA cells with ascorbate and texaphyrin (MTT); type: cell-based; settings: ascorbate at or below 333 μM, absence of texaphyrin
Procedure: The proliferation of MES-SA human uterine cells (Harker, W. G.; MacKintosh, F. R.; Sikic, B. I. Cancer Res. 1983, 43, 4943-4950) grown in RPMI-1640 medium in the presence of ascorbate or complex was used to assess the formation of hydrogen peroxide under cell culture conditions.
(§1) 5A. Materials and Methods. MES-SA cells were allowed to adhere to (4) 96-well microtiter plates (4000 cells per well) overnight in 160 μL RPMI medium. Stock ascorbate 3.0 mM in medium (80 μL) was serially diluted (1:3) in rows B through F (discarding the final 80 μL). Row G was used for no-ascorbate control. Stock solutions of GdTex (2 mM in 5% mannitol) diluted in medium and 5% mannitol were prepared and added to the plates to give a final volume of 200 μL in all wells. Columns 2 and 3 contained 100 μM GdTex; columns 4 and 5 contained 75 μM GdTex, columns 6 and 7 contained 50 μM GdTex; columns 8 and 9 contained 25 μM GdTex; and columns 10 and 11 contained no GdTex (all concentrations final). Final mannitol concentration was 0.25% in all wells. The plates were incubated at 37 C under a 5% CO2/95% air atmosphere. Complex-containing medium was exchanged for fresh medium after 5 hours, and plates were incubated an additional 72 hours prior to analysis for viability using the tetrazolium dye, MTT (Mosmann, T. J. Immunol. Methods 1983, 65, 55-63). In brief, 20 μL MTT dye (Sigma Chemical, St. Louis, Mo., catalogue no. M 2128, 5 mg/mL solution in phosphate buffered saline) was added to cells in media to give a final volume of 200 μL. The plates were incubated at 37° C. for ca. 2 hours, whereupon the media was removed and isopropyl alcohol (100 μL/well) was added. Plates were vortexed for ca. 3 minutes to dissolve MTT formazan, then read on a microplate reader at 560-650 nm. Plate absorbances were normalized to wells containing neither ascorbate nor GdTex to allow plate to plate comparison. Data for each concentration of GdTex and ascorbate is the average of eight wells.
The proliferation of MES-SA human uterine cells grown in RPMI-1640 medium in the presence of ascorbate and LuTex was used to assess the production of hydrogen peroxide under cell culture conditions following the protocol outlined in the previous example.

[2] = tested on: MES-SA cells; test: Response of MES-SA cells to ionizing radiation, microtiter plate format (MTT); type: cell-based, human; settings: BSO 0 to 100 μM and higher, data not shown
Procedure: The response of MES-SA cells to ionizing radiation was studied using the microtiter plate format to confirm radiation sensitization potential. This assay is used to assess rapidly the effects of irradiation under a variety of conditions.
10A. Materials and Methods. MES-SA cells were incubated at 37° C. and allowed to adhere to 96-well microtiter plates (1000 cells per well) overnight in 160 μL McCoys 5A containing 10% FBS (Gibco-BRL) and ca. 2% penicillin/streptomycin solution (Sigma). BSO or media (20 μL) was added, respectively to test and control wells, 24 h prior to irradiation. Metallotexaphyrin complex (up to 100 μM) was added to the test wells to give a final volume of 200 μL, 18-24 h prior to irradiation. Plates were irradiated using a 137Cs irradiator (Model 40 Gammacell, J. L. Shepherd & Assoc., San Fernando, Calif.) at a dose rate of 33.25 Rad/min. A lead brick (2″ diameter) was positioned to protect a column of wells (no. 11) from ionizing radiation. Plate absorbances were normalized to shielded wells to allow plate-to-plate comparison. […] Reversing the position of texaphyrin complex-containing wells had no effect on assay outcome. Medium was exchanged immediately after irradiation, and plates were incubated an additional 120 h prior to analysis for viability using the MTT assay (as described, e.g., in Example 5).

[3] = tested on: MES-SA human uterine cells; test: Proliferation of MES-SA cells with BSO and GdTex (MTT); type: cell-based; settings: Homo sapiens, MES-SA; absence of GdTex, highest (50 μM) concentration tested, ca. 72 hours; read-out: inhibitory effect of BSO alone
Procedure: The proliferation of MES-SA human uterine cells grown in McCoys 5A medium in the presence of a thiol depleting agent (BSO) or GdTex was used to assess the combined effect of these agents. The protocol outlined in the previous example was followed, with the following changes:
1. The serially diluted compound was 200 μM BSO (Sigma Chemical, St. Louis, Mo., catalogue no. G1404).
2. The cells were allowed to incubate in the presence of the two drugs for ca. 72 hours, prior to exchange of media and analysis using the colorimetric (MTT) assay, as described, e.g., in Example 5.

[4] = tested on: MES-SA cells; test: Radiation sensitization by clonogenic assay; type: cell-based, human; settings: 50 μM GdTex or 100 μM BSO for 24 h prior to irradiation, ascorbate-containing medium
Procedure: The response of MES-SA cells to ionizing radiation was studied using a clonogenic assay format to confirm radiation sensitization potential.
Materials and Methods. MES-SA cells (200 to 5,000 cells per dish) were plated in T-25 flasks in 8.5 mL McCoys 5A containing 10% FBS (Gibco-BRL) and ca. 2% penicillin/streptomycin solution (Sigma) and incubated at 37° C. overnight. Stock BSO, ascorbate, GdTex (or a control 5% mannitol) solutions were prepared and 0.5 mL of each added to each flask to give a final volume of 10 mL (final concentrations of BSO, ascorbate and GdTex were 100 μM, 5 μM and 50 μM, respectively) and the cells incubated for 24 hr, whereupon the flasks were irradiated using a 137Cs irradiator (Model 40 Gammacell, J. L. Shepherd & Assoc., San Fernando, Calif.) at a dose rate of 0.805 Gy/min. Medium was removed immediately after irradiation, the cells were washed with fresh medium (5.0 mL) followed by the addition of fresh medium (10 mL) and incubation for an additional 11 days. Colonies were fixed and stained with 1% crystal violet and then counted.

[5] = tested on: EMT-6 mouse mammary sarcoma cells; test: Proliferation of EMT-6 cells with NADPH and texaphyrin (MTT); type: cell-based; settings: NADPH at or below 1000 μM, absence of texaphyrin
Procedure: as §1
(§2) The proliferation of EMT-6 mouse mammary sarcoma (Rockwell, S. C., et al., J. Natl. Cancer Inst. 1972, 49, 735-749) cells grown in RPMI-1640 medium in the presence of NADPH and motexafin lutetium was used to assess the production of hydrogen peroxide under cell culture conditions following the protocol outlined in the previous example.
as §2, with “GdTex” for “motexafin lutetium”

In the case of `O=C1O[C@H]([C@@H](O)CO)C(O)=C1O` [Ascorbate, ascorbic acid, reference compound], the “inhibitory effect on cell proliferation, ascorbate alone” value [1] is reported as “no inhibitory effect”.

`CCCCS(=N)(=O)CC[C@H](N)C(=O)O` (stereo partly drawn) [BSO, L-Buthionine-[S,R]-Sulfoximine, reference compound] was tested, and the “effect of BSO on GdTex radiation sensitization” value [2] was “dose-dependent from 0 to 100 μM, and leveled off at higher BSO concentrations”, the inhibition at 50 µM [3] was ~10% and the “effect on clonogenic survival as a function of radiation, single agent” value [4] was “relatively small effect on clonogenic survival”.

In the case of `NC(=O)C1=CN([C@@H]2O[C@H](COP(=O)(O)OP(=O)(O)OC[C@H]3O[C@@H](n4cnc5c(N)ncnc54)[C@H](OP(=O)(O)O)[C@@H]3O)[C@@H](O)[C@H]2O)C=CC1` [NADPH, reference compound], the “inhibitory effect on cell proliferation, NADPH alone” value [5] is reported as “no inhibitory effect”.
